Consider eleven molecules from patent publication US11072632B2, “Inhibitors of 17β-HSD1, 17β-HSD3 and 17β-HSD10” (UNIVERSITÉ LAVAL, priority 2011, dated 2021).

Assay [1] has as its target T1, 17β-HSD3 (Homo sapiens, UniProt P37058).
T1 construct: expressed in transfected cells; host or cells: HEK-293 (homogenate)
T1 sequence (P37058 1-310): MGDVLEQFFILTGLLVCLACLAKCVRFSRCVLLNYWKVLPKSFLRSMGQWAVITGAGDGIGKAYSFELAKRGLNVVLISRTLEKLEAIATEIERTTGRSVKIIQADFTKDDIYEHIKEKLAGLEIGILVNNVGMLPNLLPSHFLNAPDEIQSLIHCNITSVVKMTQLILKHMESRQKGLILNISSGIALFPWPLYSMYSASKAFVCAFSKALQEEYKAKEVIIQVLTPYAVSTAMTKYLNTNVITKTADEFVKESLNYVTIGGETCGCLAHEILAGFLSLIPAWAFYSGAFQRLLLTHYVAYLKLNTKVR
As to the kind of experiment: Inhibition of 17β-HSD3 in homogenated HEK-293 cells. Type of assay: biochemical.

Assay [2] addresses T1, 17β-HSD3. The experiment in a line: Inhibition of 17β-HSD3 in intact HEK-293 cells. As to conditions: for inhibition at 0.1 µM: HEK293, 1 h. Type of assay: cell-based.
In the next assay the target is T2, 17β-HSD10 (Homo sapiens, UniProt Q99714).
T2 construct: expressed in transfected cells
T2 sequence (Q99714 1-261): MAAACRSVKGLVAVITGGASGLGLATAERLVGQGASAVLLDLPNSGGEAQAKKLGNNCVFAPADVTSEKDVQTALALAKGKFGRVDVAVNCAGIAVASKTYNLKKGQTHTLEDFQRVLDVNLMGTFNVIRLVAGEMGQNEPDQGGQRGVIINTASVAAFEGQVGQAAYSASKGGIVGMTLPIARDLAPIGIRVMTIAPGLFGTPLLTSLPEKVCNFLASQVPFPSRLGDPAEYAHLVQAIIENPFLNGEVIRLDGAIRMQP
The experiment in a line: Inhibition of 17β-HSD10 in stably transfected HEK-293 whole cells (E2 into E1). It is filed as cell-based.

A further assay relates to MCF-7 cells. The experiment in a line: Estrogenic activity in MCF-7 cells. Further: key: — = no; + = weak; ++ = medium to strong. Type of assay: cell-based, human. Conditions: growth of estrogen-starved MCF-7 cells, 7 days. As for the experimental part: MCF-7 cells were seeded with medium supplemented with insulin (50 ng/mL) and 5% dextran-coated charcoal treated FBS rather than 10% FBS to remove remaining hormones. Aliquots (100 μL) of the cell suspension were seeded in 96-well plates (3000 cells/well). […] Cells were grown either in the absence or presence of the compounds over a period of 7 days. Quantification of cell growth was determined by using the CellTiter 96®Aqueous Solution Cell Proliferation Assay (Promega, Nepean, ON, Canada) following the manufacturer's instructions. To determine the proliferative (estrogenic) activity, the cells were grown in the absence (control fixed as 100%) or presence of the tested compounds at the indicated concentrations.

In the next assay the target is T3, 17β-HSD1 (Homo sapiens, UniProt P14061).
T3 construct: endogenous in cells; host or cells: T-47D
T3 sequence (P14061 1-328): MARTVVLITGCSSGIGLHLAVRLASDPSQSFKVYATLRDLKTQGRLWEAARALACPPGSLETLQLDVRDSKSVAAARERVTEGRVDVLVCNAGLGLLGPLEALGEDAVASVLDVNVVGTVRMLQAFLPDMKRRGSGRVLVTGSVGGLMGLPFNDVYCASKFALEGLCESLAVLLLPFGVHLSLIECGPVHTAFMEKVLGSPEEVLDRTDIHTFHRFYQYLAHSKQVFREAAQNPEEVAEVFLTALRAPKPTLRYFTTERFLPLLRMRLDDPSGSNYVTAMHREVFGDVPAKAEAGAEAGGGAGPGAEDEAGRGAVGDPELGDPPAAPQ
As to the kind of experiment: Inhibition of 17β-HSD1 in T-47D intact cells (E1 into E2). It is filed as cell-based. As to conditions: T47D; for inhibition at 0.1 µM: read-out: Inhibition (0.1 μM); for inhibition at 1 µM: read-out: Inhibition (1 μM). As for the experimental part:
T-47D cells were seeded in a 24-well plate (3000 cells/well) in medium supplemented with insulin (50 ng/mL) and 5% dextran-coated charcoal treated FBS rather than 10% FBS to remove remaining hormones. […] Each inhibitor was assessed in triplicate. After incubation, the culture medium was removed and labelled steroids (E1 and E2) extracted with 1 mL of diethyl ether. The organic phases were separated and evaporated to dryness using nitrogen. Residues were dissolved in dichloromethane and dropped on silica gel thin layer chromatography plates (EMD Chemicals Inc., Gibbstown, N.J., USA) and eluted with a toluene/acetone (4:1) solvent system. Substrate [^14C]-E1 and metabolite [^14C]-E2 were identified by comparison with reference steroids and quantified using a Storm 860 system (Molecular Dynamics, Sunnyvale, Calif., USA).
T-47D cells were seeded in a 24-well plate (3000 cells/well) in 990 μL of medium supplemented with insulin (50 ng/mL) and 5% dextran-coated charcoal-treated FBS, which was used rather than untreated 10% FBS, to remove the remaining steroid hormones. […] The final concentration of ethanol in the well was adjusted to 0.1%. Additionally, 5 μL of a solution of [^14C]-estrone (American Radiolabeled Chemicals, Inc., St. Louis, Mo., USA) was added to obtain a final concentration of 60 nM. […] After incubation, the culture medium was removed and labeled steroids (E1 and E2) were extracted with 1 mL of diethyl ether. The organic phases were evaporated to dryness with nitrogen. Residues were dissolved in dichloromethane and dropped on silica gel thin layer chromatography plates (EMD Chemicals Inc., Gibbstown, N.J., USA) and eluted with toluene/acetone (4:1) as solvent system. Substrate [^14C]-E1 and metabolite [^14C]-E2 were identified by comparison with reference steroids (E1 and E2) and quantified using the Storm 860 system (Molecular Dynamics, Sunnyvale, Calif., USA).

Setting [3] is: [14C]-E2 (1 μM) into [14C]-E1, intact HEK-293 cells, 1 μM.
The mark [4] stands for this setting: Table 3, read-out: Homo (%) (0.01 μM).
The mark [5] stands for this setting: Table 3, read-out: Homo (%) (0.1 μM).
The mark [6] stands for this setting: HEK293, [14C]-E2 (1 μM) into [14C]-E1, intact HEK-293 cells, 1 μM, read-out: Inhibition (%) at 1 μM.
Setting [7] is: Table 2 (17β-HSD1), [14C]-E1 60 nM, T-47D intact cells, 0.1 μM.
The mark [8] stands for this setting: Table 2 (17β-HSD1), [14C]-E1 60 nM, T-47D intact cells, 1 μM.

Each structure is given as a SMILES string. Where two headings read alike, the source gives them in different places.

As to `CC1CN(C(=O)c2ccc(C(F)(F)F)cc2)C(C)CN1C[C@@]1(O)CC[C@@]2(C)[C@@H](CC[C@@H]3[C@@H]2CC[C@]2(C)C(=O)CC[C@@H]32)C1` (stereo partly drawn) [Compound 13d, (3α,5α)-3-{[(2,5)-2,5-dimethyl-4-{[4-(trifluoromethyl)phenyl]carbonyl}piperazin-1-yl]methyl}-3-hydroxyandrostan-17-one], on 17β-HSD3 [1] (Table 3), the “Homo (%) (0.01 μM)” value worked out at 17% and the “Homo (%) (0.1 μM)” value amounted to 91%. For the same molecule, the “Intact cells (%) (0.1 μM)” value at 17β-HSD3 [2] (Table 3, 0.1 μM) came to 61%. At 17β-HSD10 (setting [3]), the “Inhibition (%) at 1 μM” value is 22%.
As for `C[C@]12CC[C@](O)(CN3CCN(S(=O)(=O)c4cccc(C(F)(F)F)c4)CC3)C[C@@H]1CC[C@@H]1[C@@H]2CC[C@]2(C)C(=O)CC[C@@H]12` [Compound 14a, (3α,5α)-3-hydroxy-3-[(4-{[3-(trifluoromethyl)phenyl]sulfonyl}piperazin-1-yl)methyl]androstan-17-one], on 17β-HSD3 [1] (setting [4]), the inhibition at 0.01 µM was 21%. Also, on 17β-HSD3 [1] (setting [5]), the inhibition at 0.1 µM is 82%. Besides, the “Intact cells (%), tested at 1 μM” value on 17β-HSD3 [2] (Table 3, footnote b, 1 μM) is on record as “N/A (71)^b %”. For the same molecule, the inhibition at 1 µM on 17β-HSD10 (setting [6]) came out at 3%.
Take `C[C@]12CC[C@](O)(CN3CCN(S(=O)(=O)c4ccccc4C(F)(F)F)CC3)C[C@@H]1CC[C@@H]1[C@@H]2CC[C@]2(C)C(=O)CC[C@@H]12` [Compound 14b, (3α,5α)-3-hydroxy-3-[(4-{[2-(trifluoromethyl)phenyl]sulfonyl}piperazin-1-yl)methyl]androstan-17-one]: the inhibition at 0.01 µM at 17β-HSD3 [1] (setting [4]) amounted to 45%. Moreover, the inhibition at 0.1 µM on 17β-HSD3 [1] (setting [5]) was 92%; on 17β-HSD3 [2] (Table 3, 0.1 μM, read-out: Intact cells (%) (0.1 μM)), 45%. The inhibition at 1 µM on 17β-HSD10 (setting [6]) stood at 32%.
For the molecule `C[C@]12CC[C@](O)(CN3CCN(S(=O)(=O)c4ccc(C(F)(F)F)cc4)CC3)C[C@@H]1CC[C@@H]1[C@@H]2CC[C@]2(C)C(=O)CC[C@@H]12` [Compound 14c, (3α,5α)-3-hydroxy-3-[(4-{[4-(trifluoromethyl)phenyl]sulfonyl}-piperazin-1-yl)methyl]androstan-17-one], the inhibition at 0.01 µM at 17β-HSD3 [1] (read-out: Homo (%) (0.01 μM), Table 3) was 21%. Besides, the inhibition at 0.1 µM at 17β-HSD3 [1] (read-out: Homo (%) (0.1 μM), Table 3) was determined as 78%; on 17β-HSD3 [2] (read-out: Intact cells (%) (0.1 μM), Table 3, 0.1 μM), 34%. In addition, the inhibition at 1 µM on 17β-HSD10 (HEK293, read-out: Inhibition (%) at 1 μM) is 14%.
On to `CC1CN(S(=O)(=O)c2cccc(C(F)(F)F)c2)C(C)CN1C[C@@]1(O)CC[C@@]2(C)[C@@H](CC[C@@H]3[C@@H]2CC[C@]2(C)C(=O)CC[C@@H]32)C1` (stereo partly drawn) [Compound 15a, (3α,5α)-3-{[(2ξ,5ξ)-2,5-dimethyl-4-{[3-(trifluoromethyl)phenyl]sulfonyl}piperazin-1-yl]methyl}-3-hydroxyandrostan-17-one], for which, at 17β-HSD3 [1] (Table 3), the “Homo (%) (0.01 μM)” value amounted to 32% and the “Homo (%) (0.1 μM)” value amounted to 91%. In addition, the “Intact cells (%) (0.1 μM)” value at 17β-HSD3 [2] (Table 3, 0.1 μM) worked out at 77%. The “Inhibition (%) at 1 μM” value on 17β-HSD10 (setting [3]) is given as 42%.
As to `CC1CN(S(=O)(=O)c2ccccc2C(F)(F)F)C(C)CN1CC1(O)CCC2(C)C(CCC3C4CCC(=O)C4(C)CCC32)C1` (stereo not drawn) [Compound 15c], at 17β-HSD3 [1] (Table 3), the “Homo (%) (0.01 μM)” value is recorded as 79% and the “Homo (%) (0.1 μM)” value was determined as 92%. The “Intact cells (%) (0.1 μM)” value on 17β-HSD3 [2] (Table 3, 0.1 μM) is reported as 47%. Also, the “Inhibition (%) at 1 μM” value on 17β-HSD10 (setting [3]) was found to be 18%.
A word on the IC50: it is the concentration that inhibits the measured activity by half. As for `C[C@]12CC[C@@]3(C[C@@H]1CC[C@@H]1[C@@H]2CC[C@]2(C)C(=O)CC[C@@H]12)CN(CCO)C(=O)O3` [Compound 21, (3R,5S,8R,9S,10S,13S,14S)-3′-(2-hydroxyethyl)-10,13-dimethyltetrahydrodecahydro-2′H-spiro[cyclopenta[α]phenanthrene-3,5′-[1,3]oxazolidine]-2′,17(2H)-dione], the inhibition at 0.01 µM on 17β-HSD3 [1] (read-out: Homo (%) (0.01 μM), Table 4) was determined as 0%. Besides, at 17β-HSD3 [1] (read-out: Homo (%) (0.1 μM), Table 4), the inhibition at 0.1 µM was determined as 9%. Moreover, the inhibition at 1 µM on 17β-HSD3 [1] (read-out: Homo (%) (1.0 μM), Table 4, 1.0 μM) worked out at 38%. At 17β-HSD3 [2] (Table 4, footnote b, 0.1 μM), the “Intact cells (%) (0.1 μM), tested in another experiment” value was 16^b %. The IC50 at 17β-HSD10 (intact transfected HEK-293 cells, E2 1 μM, read-out: IC50) worked out at 550 nM.
On to `C[C@]12CC[C@@H]3c4ccc(CC(=O)O)cc4CC[C@H]3[C@@H]1C[C@H](Cc1cccc(C(N)=O)c1)[C@@H]2O` [Compound 31, [(16β,17β)-16-(3-carbamoylbenzyl)-17-hydroxyestra-1(10),2,4-trien-3-yl]acetic acid], for which the “Estrogenicity (1.0 μM)” value with MCF-7 cells is reported as “+”. Moreover, at 17β-HSD1 (setting [7]), the inhibition at 0.1 µM is 12%. Further, the inhibition at 1 µM at 17β-HSD1 (setting [8]) came out at 29%.
In the case of `C[C@]12CC[C@@H]3c4ccc(C(=O)O)cc4CC[C@H]3[C@@H]1C[C@H](Cc1cccc(C(N)=O)c1)[C@@H]2O` [Compound 36, (16β,17β)-16-(3-carbamoylbenzyl)-17-hydroxyestra-1,3,5(10)-triene-3-carboxylic acid], the “Estrogenicity (1.0 μM)” value in the assay on MCF-7 cells is given as “++”. In addition, at 17β-HSD1 (setting [7]), the inhibition at 0.1 µM came to 5%. Besides, at 17β-HSD1 (setting [8]), the inhibition at 1 µM was found to be 8%.
As to `C[C@]12CC[C@@H]3c4ccc(CN)cc4CC[C@H]3[C@@H]1C[C@H](Cc1cccc(C(N)=O)c1)[C@@H]2O` [Compound 39, 3-{[(16β,17β)-3-(aminomethyl)-17-hydroxyestra-1,3,5(10)-trien-16-yl]methyl}benzamide], in the assay on MCF-7 cells (0.1 μM), the “Estrogenicity (0.1 μM)” value is listed as “++”. In the assay with MCF-7 cells, the “Estrogenicity (1.0 μM)” value is recorded as “++”. At 17β-HSD1, the inhibition at 0.1 µM is 35% and the inhibition at 1 µM came to 73%.
For `CNC(=O)c1ccc2c(c1)CC[C@@H]1[C@@H]2CC[C@]2(C)[C@@H](O)[C@@H](Cc3cccc(C(N)=O)c3)C[C@@H]12` [Compound 41d, (16β,17β)-16-(3-carbamoylbenzyl)-17-hydroxy-N-methylestra-1,3,5(10)-triene-3-carboxamide], the “Estrogenicity (1.0 μM)” value in the assay with MCF-7 cells is reported as “+”. Further, at 17β-HSD1, the inhibition at 0.1 µM stood at 3% and the inhibition at 1 µM was 5%.
